The source of these data is patent publication US10251892B2, “Bicyclic heterocycles as FGFR4 inhibitors” (Incyte Corporation, priority 2015, dated 2019).

Structures are written as SMILES.

FGFR3 enzyme, sequence (P22607 23-806): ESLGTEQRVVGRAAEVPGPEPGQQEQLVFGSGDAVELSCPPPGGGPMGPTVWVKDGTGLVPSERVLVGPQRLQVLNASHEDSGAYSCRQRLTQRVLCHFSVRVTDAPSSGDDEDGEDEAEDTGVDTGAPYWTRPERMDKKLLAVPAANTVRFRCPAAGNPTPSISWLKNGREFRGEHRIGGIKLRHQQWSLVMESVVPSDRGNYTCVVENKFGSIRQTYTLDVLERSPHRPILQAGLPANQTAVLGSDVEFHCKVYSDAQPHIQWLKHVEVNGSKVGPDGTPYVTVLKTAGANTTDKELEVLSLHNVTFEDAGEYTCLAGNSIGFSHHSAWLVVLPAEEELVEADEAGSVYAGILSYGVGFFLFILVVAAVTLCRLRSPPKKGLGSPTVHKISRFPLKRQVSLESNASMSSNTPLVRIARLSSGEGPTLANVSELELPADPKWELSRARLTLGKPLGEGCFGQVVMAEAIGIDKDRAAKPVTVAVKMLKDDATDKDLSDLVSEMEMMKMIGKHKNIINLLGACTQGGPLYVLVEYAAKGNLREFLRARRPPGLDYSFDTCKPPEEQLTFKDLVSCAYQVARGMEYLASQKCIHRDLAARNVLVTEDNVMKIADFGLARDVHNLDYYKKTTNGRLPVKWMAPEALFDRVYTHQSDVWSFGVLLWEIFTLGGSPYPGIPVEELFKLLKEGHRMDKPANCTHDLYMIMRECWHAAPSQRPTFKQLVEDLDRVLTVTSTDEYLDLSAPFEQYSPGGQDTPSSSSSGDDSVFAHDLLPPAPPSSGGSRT

The test concerns the target FGFR3 enzyme (Homo sapiens (Human), UniProt P22607). Nature of the test: FGFR Enzymatic Assay (peptide phosphorylation, FRET), FGFR3. Type of test: biochemical. The following applies: IC50 ratio showing FGFR3 selectivity; pre-incubated for 4 hours. How it is done:
The inhibitor potency of the exemplified compounds was measured in an enzyme assay that measures peptide phosphorylation using FRET measurements to detect product formation. Inhibitors were serially diluted in DMSO and a volume of 0.5 μL was transferred to the wells of a 384-well plate.
GraphPad prism3 was used to analyze the data.
For `COc1cc(OC)c(F)c(N2Cc3cnc(-c4cn(C)nc4C)cc3N(c3cc(F)cc(F)c3)C2=O)c1F` [Example 103, 3-(2,6-difluoro-3,5-dimethoxyphenyl)-1-(3,5-difluorophenyl)-7-(1,3-dimethyl-1H-pyrazol-4-yl)-3,4-dihydropyrido[4,3-d]pyrimidin-2(1H)-one], the FGFR1/FGFR3 is on record as over 3 and the FGFR4/FGFR3 is reported as over 5.

Consider `CCc1cnc(N2C(=O)N(c3c(F)c(OC)cc(OC)c3F)Cc3cnc(-c4cn(C)nc4C)cc32)cn1` [Example 106, 3-(2,6-difluoro-3,5-dimethoxyphenyl)-7-(1,3-dimethyl-1H-pyrazol-4-yl)-1-(5-ethylpyrazin-2-yl)-3,4-dihydropyrido[4,3-d]pyrimidin-2(1H)-one], for which the FGFR1/FGFR3 is reported as over 3 and the FGFR4/FGFR3 was over 5.

For `COc1cc(OC)c(F)c(N2Cc3cnc(-c4cn(C)nc4C)cc3N(C3(C#N)CC3)C2=O)c1F` [Example 91, 1-(3-(2,6-difluoro-3,5-dimethoxyphenyl)-7-(1,3-dimethyl-1H-pyrazol-4-yl)-2-oxo-3,4-dihydropyrido[4,3-d]pyrimidin-1(2H)-yl)cyclopropanecarbonitrile], the FGFR1/FGFR3 is over 5 and the FGFR4/FGFR3 is given as over 5.

Turning to `CNC(=O)c1ccc(-c2cc3c(cn2)CN(c2c(F)c(OC)cc(OC)c2F)C(=O)C32CC2)cn1` [Example 18, 5-(2′-(2,6-difluoro-3,5-dimethoxyphenyl)-3′-oxo-2′,3′-dihydro-1′H-spiro[cyclopropane-1,4′-[2,7]naphthyridine]-6′-yl)-N-methylpicolinamide], the FGFR1/FGFR3 is over 5.

`COc1cc(OC)c(F)c(N2Cc3cnc(-c4cn(C)nc4C)cc3N(Cc3nnc(C)o3)C2=O)c1F` [Example 46, 3-(2,6-difluoro-3,5-dimethoxyphenyl)-7-(1,3-dimethyl-1H-pyrazol-4-yl)-1-[(5-methyl-1,3,4-oxadiazol-2-yl)methyl]-3,4-dihydropyrido[4,3-d]pyrimidin-2(1H)-one]: the FGFR1/FGFR3 was over 10 and the FGFR4/FGFR3 was over 10.

For the compound `COc1cc(OC)c(F)c(N2Cc3cnc(-c4cn(C)nc4C)cc3N(C3CCOC3)C2=O)c1F` (centres unmarked) [Example 33, 3-(2,6-difluoro-3,5-dimethoxyphenyl)-7-(1,3-dimethyl-1H-pyrazol-4-yl)-1-(tetrahydrofuran-3-yl)-3,4-dihydropyrido[4,3-d]pyrimidin-2(1H)-one], the FGFR1/FGFR3 is given as over 5 and the FGFR4/FGFR3 is on record as over 5.

For the compound `COc1cc(OC)c(F)c(N2Cc3cnc(-c4cn(C)nc4C)cc3N(c3cccnc3)C2=O)c1F` [Example 86, 3-(2,6-difluoro-3,5-dimethoxyphenyl)-7-(1,3-dimethyl-1H-pyrazol-4-yl)-1-(pyridin-3-yl)-3,4-dihydropyrido[4,3-d]pyrimidin-2(1H)-one], the FGFR1/FGFR3 is listed as over 5 and the FGFR4/FGFR3 is over 10.

Consider `COc1cc(OC)c(F)c(N2Cc3cnc(-c4cn(C)nc4C)cc3N(C[C@H]3CCOC3)C2=O)c1F` [Example 108, (R)-3-(2,6-difluoro-3,5-dimethoxyphenyl)-7-(1,3-dimethyl-1H-pyrazol-4-yl)-1-((tetrahydrofuran-3-yl)methyl)-3,4-dihydropyrido[4,3-d]pyrimidin-2(1H)-one], for which the FGFR1/FGFR3 was over 3 and the FGFR4/FGFR3 was over 3.

Turning to `COc1cc(OC)c(F)c(N2Cc3cnc(-c4cn(CC(=O)N5CCOCC5)nc4C)cc3C3(CC3)C2=O)c1F` [Example 159, 2′-(2,6-difluoro-3,5-dimethoxyphenyl)-6′-(3-methyl-1-(2-morpholino-2-oxoethyl)-1H-pyrazol-4-yl)-1′H-spiro[cyclopropane-1,4′-[2,7]naphthyridin]-3′(2′H)-one], the FGFR1/FGFR3 was over 5 and the FGFR4/FGFR3 was over 3.
